According to paper PMC12749626, “Expediting hit-to-lead progression in drug discovery through reaction prediction and multi-dimensional optimization” (Nature Communications, 2025):

Key:
human MAGL = molecular target: T1, human MAGL (Homo sapiens, UniProt Q99685); details: = pIC50 - cLogP
T1 sequence (Q99685 1-303): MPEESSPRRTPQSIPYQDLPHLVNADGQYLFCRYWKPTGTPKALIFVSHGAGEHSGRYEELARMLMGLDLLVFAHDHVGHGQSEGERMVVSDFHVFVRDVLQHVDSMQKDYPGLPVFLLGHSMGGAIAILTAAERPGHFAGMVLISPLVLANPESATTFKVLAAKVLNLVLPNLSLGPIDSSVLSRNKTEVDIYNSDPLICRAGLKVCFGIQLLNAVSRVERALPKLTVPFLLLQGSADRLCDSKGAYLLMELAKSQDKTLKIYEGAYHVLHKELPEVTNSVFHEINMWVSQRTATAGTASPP

5HT1A = 5HT1A (Homo sapiens, UniProt P08908); details: 10 uM; n=2
5HT2B = 5HT2B (Homo sapiens, UniProt P41595); details: 10 uM; n=2
5HT3 = 5HT3 (Homo sapiens, UniProt P46098); details: 10 uM; n=2
ABL1 = ABL1 (Homo sapiens, UniProt P00519); details: 10 uM; n=2
ACETYLCHOLINESTERASE = ACETYLCHOLINESTERASE (Homo sapiens, UniProt P22303); details: 10 uM; n=2
ADENOSINE A1 REC. = ADENOSINE A1 REC. (Homo sapiens, UniProt P30542); details: 10 uM; n=2
ADENOSINE A3 REC. = ADENOSINE A3 REC. (Homo sapiens, UniProt P0DMS8); details: 10 uM; n=2
α1A-ADRENOCEPTOR = α1A-ADRENOCEPTOR (Homo sapiens, UniProt P35348); details: 10 uM; n=2
Sequence of UniProt P35348 (P35348 whole entry): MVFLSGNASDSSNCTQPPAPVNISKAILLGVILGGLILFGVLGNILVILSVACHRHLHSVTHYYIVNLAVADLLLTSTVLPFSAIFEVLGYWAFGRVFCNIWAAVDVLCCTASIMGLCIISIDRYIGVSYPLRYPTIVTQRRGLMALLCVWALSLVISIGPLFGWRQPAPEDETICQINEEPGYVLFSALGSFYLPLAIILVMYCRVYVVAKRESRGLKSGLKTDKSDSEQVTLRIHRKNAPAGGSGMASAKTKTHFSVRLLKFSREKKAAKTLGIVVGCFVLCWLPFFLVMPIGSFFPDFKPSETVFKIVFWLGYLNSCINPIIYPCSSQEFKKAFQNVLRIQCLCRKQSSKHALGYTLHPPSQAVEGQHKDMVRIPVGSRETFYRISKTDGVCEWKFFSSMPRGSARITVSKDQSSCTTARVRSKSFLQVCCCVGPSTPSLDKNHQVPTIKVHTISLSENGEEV

α2A-ADRENOCEPTOR = α2A-ADRENOCEPTOR (Homo sapiens, UniProt P08913); details: 10 uM; n=2
ANDROGEN REC. = ANDROGEN REC. (Homo sapiens, UniProt P10275); details: 10 uM; n=2
A[…]. ENZ. = A[…]. ENZ. (Homo sapiens, UniProt P12821); details: 10 uM; n=2
Sequence of A[…]. ENZ. (P12821 30-1306): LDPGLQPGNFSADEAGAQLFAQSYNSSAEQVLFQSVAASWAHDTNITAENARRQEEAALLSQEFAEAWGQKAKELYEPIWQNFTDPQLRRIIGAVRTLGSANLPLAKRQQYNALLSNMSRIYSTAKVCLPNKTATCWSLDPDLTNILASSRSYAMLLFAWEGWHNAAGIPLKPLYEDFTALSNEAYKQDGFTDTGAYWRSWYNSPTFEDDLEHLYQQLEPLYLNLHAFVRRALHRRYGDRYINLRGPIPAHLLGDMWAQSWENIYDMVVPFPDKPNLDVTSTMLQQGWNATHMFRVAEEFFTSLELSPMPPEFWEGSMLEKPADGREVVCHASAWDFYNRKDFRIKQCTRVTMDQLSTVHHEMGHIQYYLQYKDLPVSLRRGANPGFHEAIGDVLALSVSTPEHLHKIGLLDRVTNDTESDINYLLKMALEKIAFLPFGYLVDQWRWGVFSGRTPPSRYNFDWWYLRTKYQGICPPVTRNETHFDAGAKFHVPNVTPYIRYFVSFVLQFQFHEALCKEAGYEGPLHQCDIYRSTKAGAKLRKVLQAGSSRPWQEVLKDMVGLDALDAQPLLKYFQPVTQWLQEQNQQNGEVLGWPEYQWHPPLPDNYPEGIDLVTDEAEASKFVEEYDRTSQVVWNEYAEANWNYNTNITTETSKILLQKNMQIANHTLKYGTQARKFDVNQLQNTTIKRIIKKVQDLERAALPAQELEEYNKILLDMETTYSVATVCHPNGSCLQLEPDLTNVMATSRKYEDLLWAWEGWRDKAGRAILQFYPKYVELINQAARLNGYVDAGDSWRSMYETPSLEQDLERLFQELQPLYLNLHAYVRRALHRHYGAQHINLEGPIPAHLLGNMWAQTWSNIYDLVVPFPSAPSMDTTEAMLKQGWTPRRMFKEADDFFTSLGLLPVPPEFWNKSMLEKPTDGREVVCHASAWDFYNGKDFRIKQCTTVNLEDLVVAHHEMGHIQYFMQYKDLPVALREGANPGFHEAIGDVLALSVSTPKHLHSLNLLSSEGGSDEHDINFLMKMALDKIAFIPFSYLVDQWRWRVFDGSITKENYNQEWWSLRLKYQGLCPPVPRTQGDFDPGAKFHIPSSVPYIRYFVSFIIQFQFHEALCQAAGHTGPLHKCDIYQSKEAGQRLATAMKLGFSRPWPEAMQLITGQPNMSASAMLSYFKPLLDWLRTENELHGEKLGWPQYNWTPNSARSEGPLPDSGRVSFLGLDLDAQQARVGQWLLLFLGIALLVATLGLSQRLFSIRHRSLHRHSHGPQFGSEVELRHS

ANGIOTENSIN II REC. 1 = ANGIOTENSIN II REC. 1 (Homo sapiens, UniProt P30556); details: 10 uM; n=2
β1-ADRENOCEPTOR = β1-ADRENOCEPTOR (Homo sapiens, UniProt P08588); details: 10 uM; n=2
C[…]. CB1 = C[…]. CB1 (Homo sapiens, UniProt P21554); details: 10 uM; n=2
CDK2 = CDK2 (Homo sapiens, UniProt P24941); details: 10 uM; n=2
CYCLO OXYGENASE 2 = CYCLO OXYGENASE 2 (Homo sapiens, UniProt P35354); details: 10 uM; n=2
DOPAMINE D2 REC. (short) = DOPAMINE D2 REC. (short) (Homo sapiens, UniProt P14416); details: 10 uM; n=2
ESTROGEN REC. α = ESTROGEN REC. α (Homo sapiens, UniProt P03372); details: 10 uM; n=2
GLUC[…]. = GLUC[…]. (Homo sapiens, UniProt P04150); details: 10 uM; n=2
GSK-3A = GSK-3A (Homo sapiens, UniProt P49840); details: 10 uM; n=2
Sequence of GSK-3A (P49840 whole entry): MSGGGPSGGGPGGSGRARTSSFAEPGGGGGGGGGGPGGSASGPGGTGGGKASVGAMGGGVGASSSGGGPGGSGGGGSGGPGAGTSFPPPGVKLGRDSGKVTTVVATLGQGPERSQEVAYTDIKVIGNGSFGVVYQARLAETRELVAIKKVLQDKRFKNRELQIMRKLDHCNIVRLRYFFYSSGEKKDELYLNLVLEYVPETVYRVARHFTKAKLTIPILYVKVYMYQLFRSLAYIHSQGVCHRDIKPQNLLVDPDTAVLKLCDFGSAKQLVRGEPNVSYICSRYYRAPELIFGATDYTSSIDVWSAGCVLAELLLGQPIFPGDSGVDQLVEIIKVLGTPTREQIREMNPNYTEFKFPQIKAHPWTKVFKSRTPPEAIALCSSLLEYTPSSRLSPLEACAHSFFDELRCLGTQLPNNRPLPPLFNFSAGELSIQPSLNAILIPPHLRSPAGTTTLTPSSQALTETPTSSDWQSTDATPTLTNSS

HISTAMINE H1 REC. = HISTAMINE H1 REC. (Homo sapiens, UniProt P35367); details: 10 uM; n=2
HISTAMINE H2 REC. = HISTAMINE H2 REC. (Homo sapiens, UniProt P25021); details: 10 uM; n=2
Sequence of HISTAMINE H2 REC. (P25021 whole entry): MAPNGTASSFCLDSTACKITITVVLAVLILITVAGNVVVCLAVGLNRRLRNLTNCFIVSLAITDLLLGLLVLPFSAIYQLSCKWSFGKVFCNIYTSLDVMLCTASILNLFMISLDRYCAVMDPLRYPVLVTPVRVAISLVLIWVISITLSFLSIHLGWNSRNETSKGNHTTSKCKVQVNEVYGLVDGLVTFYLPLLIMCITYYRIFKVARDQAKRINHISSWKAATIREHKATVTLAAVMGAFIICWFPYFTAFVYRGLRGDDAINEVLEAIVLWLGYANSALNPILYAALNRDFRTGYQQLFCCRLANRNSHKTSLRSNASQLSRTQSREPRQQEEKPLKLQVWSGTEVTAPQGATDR

HISTAMINE H3 REC. = HISTAMINE H3 REC. (Homo sapiens, UniProt Q9Y5N1); details: 10 uM; n=2
HIV-1 PROTEASE = HIV-1 PROTEASE (Human immunodeficiency virus type 1 group M subtype B, UniProt P04585); details: 10 uM; n=2
κ OPIOID REC. = κ OPIOID REC. (Homo sapiens, UniProt P41145); details: 10 uM; n=2
MONOAMINE OXIDASE-A = MONOAMINE OXIDASE-A (Homo sapiens, UniProt P21397); details: 10 uM; n=2
μ OPIOID REC. = μ OPIOID REC. (Homo sapiens, UniProt P35372); details: 10 uM; n=2
Sequence of μ OPIOID REC. (P35372 whole entry): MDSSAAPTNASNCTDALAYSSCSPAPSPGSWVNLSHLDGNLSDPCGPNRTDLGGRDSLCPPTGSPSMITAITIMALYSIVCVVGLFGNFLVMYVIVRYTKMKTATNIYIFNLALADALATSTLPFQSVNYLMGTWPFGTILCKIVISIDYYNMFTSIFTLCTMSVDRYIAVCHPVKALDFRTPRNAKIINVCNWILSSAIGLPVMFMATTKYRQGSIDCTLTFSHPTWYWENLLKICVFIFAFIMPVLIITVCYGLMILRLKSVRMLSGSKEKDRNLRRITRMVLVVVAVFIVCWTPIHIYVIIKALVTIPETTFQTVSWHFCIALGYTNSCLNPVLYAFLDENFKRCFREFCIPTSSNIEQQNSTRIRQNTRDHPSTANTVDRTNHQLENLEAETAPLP

[…]. M2 = […]. M2 (Homo sapiens, UniProt P08172); details: 10 uM; n=2
NORE[…]. = NORE[…]. (Homo sapiens, UniProt P23975); details: 10 uM; n=2
PHOSPHODIESTERASE 3B = PHOSPHODIESTERASE 3B (Homo sapiens, UniProt Q13370); details: 10 uM; n=2
PPARγ = PPARγ (Homo sapiens, UniProt P37231); details: 10 uM; n=2
Sequence of PPARγ (P37231 whole entry): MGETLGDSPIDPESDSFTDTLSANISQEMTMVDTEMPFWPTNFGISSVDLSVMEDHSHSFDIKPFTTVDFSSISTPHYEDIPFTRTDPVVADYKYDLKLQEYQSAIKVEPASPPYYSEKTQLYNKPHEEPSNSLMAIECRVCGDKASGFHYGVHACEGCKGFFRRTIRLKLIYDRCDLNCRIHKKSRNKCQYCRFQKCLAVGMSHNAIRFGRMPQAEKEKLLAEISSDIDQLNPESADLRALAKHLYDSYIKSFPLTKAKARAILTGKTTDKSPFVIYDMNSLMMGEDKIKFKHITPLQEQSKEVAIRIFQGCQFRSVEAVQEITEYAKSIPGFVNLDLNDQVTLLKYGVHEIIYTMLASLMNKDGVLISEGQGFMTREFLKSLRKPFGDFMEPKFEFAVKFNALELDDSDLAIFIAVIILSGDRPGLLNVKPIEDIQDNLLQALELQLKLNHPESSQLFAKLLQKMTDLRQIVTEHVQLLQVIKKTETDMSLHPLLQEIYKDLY

PROSTAGLANDIN F REC. = PROSTAGLANDIN F REC. (Homo sapiens, UniProt P43088); details: 10 uM; n=2
SEROTONIN TRANSPORTER = SEROTONIN TRANSPORTER (Homo sapiens, UniProt P31645); details: 10 uM; n=2
XANTHINE OXIDASE = XANTHINE OXIDASE (Bos taurus, UniProt P80457); details: 10 uM; n=2
Sequence of XANTHINE OXIDASE (P80457 2-1332): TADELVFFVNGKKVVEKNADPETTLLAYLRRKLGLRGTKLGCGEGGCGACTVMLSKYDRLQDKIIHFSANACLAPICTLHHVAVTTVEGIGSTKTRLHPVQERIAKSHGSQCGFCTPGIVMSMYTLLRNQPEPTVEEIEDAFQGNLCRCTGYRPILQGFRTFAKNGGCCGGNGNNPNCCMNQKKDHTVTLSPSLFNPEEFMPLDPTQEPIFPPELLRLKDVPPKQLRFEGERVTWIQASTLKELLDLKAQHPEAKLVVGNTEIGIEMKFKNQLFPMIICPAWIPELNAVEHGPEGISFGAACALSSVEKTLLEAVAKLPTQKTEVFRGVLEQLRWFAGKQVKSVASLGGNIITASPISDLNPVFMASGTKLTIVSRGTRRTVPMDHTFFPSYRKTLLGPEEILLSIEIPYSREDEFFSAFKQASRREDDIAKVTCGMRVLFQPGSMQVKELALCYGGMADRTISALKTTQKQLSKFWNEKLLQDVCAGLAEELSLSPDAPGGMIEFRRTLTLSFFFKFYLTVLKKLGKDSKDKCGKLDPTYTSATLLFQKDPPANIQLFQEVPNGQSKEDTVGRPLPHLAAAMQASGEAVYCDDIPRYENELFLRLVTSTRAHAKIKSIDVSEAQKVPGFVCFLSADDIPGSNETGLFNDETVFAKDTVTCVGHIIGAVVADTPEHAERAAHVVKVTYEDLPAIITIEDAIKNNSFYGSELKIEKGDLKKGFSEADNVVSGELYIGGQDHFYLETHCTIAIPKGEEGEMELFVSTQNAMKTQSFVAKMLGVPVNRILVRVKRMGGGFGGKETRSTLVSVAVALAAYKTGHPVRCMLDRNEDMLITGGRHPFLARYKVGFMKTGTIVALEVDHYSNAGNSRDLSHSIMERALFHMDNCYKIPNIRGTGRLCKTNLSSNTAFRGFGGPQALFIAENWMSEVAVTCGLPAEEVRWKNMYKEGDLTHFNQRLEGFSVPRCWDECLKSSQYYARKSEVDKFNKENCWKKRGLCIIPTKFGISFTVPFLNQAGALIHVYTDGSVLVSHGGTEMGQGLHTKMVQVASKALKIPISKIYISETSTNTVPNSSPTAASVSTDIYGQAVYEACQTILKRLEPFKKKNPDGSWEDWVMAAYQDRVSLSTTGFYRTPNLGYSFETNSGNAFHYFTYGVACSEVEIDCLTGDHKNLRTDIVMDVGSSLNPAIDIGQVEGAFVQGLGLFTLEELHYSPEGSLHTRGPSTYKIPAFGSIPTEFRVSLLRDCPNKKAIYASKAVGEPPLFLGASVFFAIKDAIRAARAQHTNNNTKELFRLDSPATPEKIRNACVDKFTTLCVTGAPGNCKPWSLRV

ZAP70 = ZAP70 (Homo sapiens, UniProt P43403); details: 10 uM; n=2
[1] = tested on: closely related brain hydrolases; details: activity-based protein profiling, mouse brain, 10 µM

In the case of `O=C(c1ccc2nc(-c3cnccc3C3(C4CCC4)CC3)oc2c1)N1CCN(c2nc3nc(Cl)ccc3o2)CC1` [Compound 27], the “Lipophilic efficiency (LipE)” value (human MAGL) is reported as 3.72, the “5HT1A percent activity or inhibition compared to the assay reference” value (5HT1A) is reported as 28% and the “5HT2B percent activity or inhibition compared to the assay reference” value (5HT2B) is reported as 10%. The “5HT3 percent activity or inhibition compared to the assay reference” value (5HT3) was -3%, the “ABL1 percent activity or inhibition compared to the assay reference” value (ABL1) was -3% and the “ACETYLCHOLINESTERASE percent activity or inhibition compared to the assay reference” value (ACETYLCHOLINESTERASE) was -4%. The “ADENOSINE A1 REC. percent activity or inhibition compared to the assay reference” value (ADENOSINE A1 REC.) was 13%, the “ADENOSINE A3 REC. percent activity or inhibition compared to the assay reference” value (ADENOSINE A3 REC.) was 7% and the “α1A-ADRENOCEPTOR percent activity or inhibition compared to the assay reference” value (α1A-ADRENOCEPTOR) was 5%. For the same molecule, the “α2A-ADRENOCEPTOR percent activity or inhibition compared to the assay reference” value (α2A-ADRENOCEPTOR) was 0%, the “ANDROGEN REC. percent activity or inhibition compared to the assay reference” value (ANDROGEN REC.) was -6% and the “A[…]. ENZ. percent activity or inhibition compared to the assay reference” value (A[…]. ENZ.) was -12%. For the same molecule, the “ANGIOTENSIN II REC. 1 percent activity or inhibition compared to the assay reference” value (ANGIOTENSIN II REC. 1) was -1%, the “β1-ADRENOCEPTOR percent activity or inhibition compared to the assay reference” value (β1-ADRENOCEPTOR) was 4% and the “C[…]. CB1 percent activity or inhibition compared to the assay reference” value (C[…]. CB1) was 18%. For the same molecule, the “CDK2 percent activity or inhibition compared to the assay reference” value (CDK2) was 0%, the “CYCLO OXYGENASE 2 percent activity or inhibition compared to the assay reference” value (CYCLO OXYGENASE 2) was 6% and the “DOPAMINE D2 REC. (short) percent activity or inhibition compared to the assay reference” value (DOPAMINE D2 REC. (short)) was 13%. For the same molecule, the “ESTROGEN REC. α percent activity or inhibition compared to the assay reference” value (ESTROGEN REC. α) was -20%, the “GLUC[…]. percent activity or inhibition compared to the assay reference” value (GLUC[…].) was 5% and the “GSK-3A percent activity or inhibition compared to the assay reference” value (GSK-3A) was 30%. The “HISTAMINE H1 REC. percent activity or inhibition compared to the assay reference” value (HISTAMINE H1 REC.) was 48%, the “HISTAMINE H2 REC. percent activity or inhibition compared to the assay reference” value (HISTAMINE H2 REC.) was -4% and the “HISTAMINE H3 REC. percent activity or inhibition compared to the assay reference” value (HISTAMINE H3 REC.) was 15%. For the same molecule, the “HIV-1 PROTEASE percent activity or inhibition compared to the assay reference” value (HIV-1 PROTEASE) was 34%, the “κ OPIOID REC. percent activity or inhibition compared to the assay reference” value (κ OPIOID REC.) was 48% and the “MONOAMINE OXIDASE-A percent activity or inhibition compared to the assay reference” value (MONOAMINE OXIDASE-A) was -2%. The “μ OPIOID REC. percent activity or inhibition compared to the assay reference” value (μ OPIOID REC.) was 16%, the “[…]. M2 percent activity or inhibition compared to the assay reference” value ([…]. M2) was 76% and the “NORE[…]. percent activity or inhibition compared to the assay reference” value (NORE[…].) was 28%. The “PHOSPHODIESTERASE 3B percent activity or inhibition compared to the assay reference” value (PHOSPHODIESTERASE 3B) was 1%, the “PPARγ percent activity or inhibition compared to the assay reference” value (PPARγ) was 9% and the “PROSTAGLANDIN F REC. percent activity or inhibition compared to the assay reference” value (PROSTAGLANDIN F REC.) was 0%. For the same molecule, the “SEROTONIN TRANSPORTER percent activity or inhibition compared to the assay reference” value (SEROTONIN TRANSPORTER) was 1%, the “XANTHINE OXIDASE percent activity or inhibition compared to the assay reference” value (XANTHINE OXIDASE) was 6% and the “ZAP70 percent activity or inhibition compared to the assay reference” value (ZAP70) was -15%. The “selectivity toward MAGL over off-targets and closely related brain hydrolases” value [1] was “high selectivity”.
